# Key:
# [1] = target: T1, h-GABA-A α5β3γ2 (Homo sapiens, UniProt P18507+P31644); assay: Two-electrode voltage clamp electrophysiology in Xenopus laevis oocytes expressing GABAA receptors, modulation of GABA EC20 current; assay type: cell-based; parameters: host or cells: Xenopus laevis oocytes micro-injected with RNA transcripts of the subunits; details: Table 1; for Efficacy (GABA) %: % modulation of GABA EC20 = 100*(Fold increase-1); for Fold increase h-GABA-A α5β3γ2 oocyte: test compound at approx. 30 fold its Ki, GABA at EC20
# Method in brief: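 Human α5β3γ2 GABAA receptors were expressed in Xenopus oocytes by RNA injection, with γ2 RNA 5–10-fold higher, and recorded 3–5 days later by two-electrode voltage clamp at −80 mV at room temperature. The test compound, at about 30× its Ki, was co-applied during a second GABA EC20 pulse. Efficacy is the extremum of the point-by-point ratio to the first response, expressed as 100*(Fold increase−1).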
# [2] = target: T1, h-GABA-A α5β3γ2; assay: [3H]flumazenil competition binding assay, membranes of HEK293 cells expressing GABAA receptors; details: displacement of [3H]-Flumazenil 0.5 nM, HEK293 cells expressing human receptors, mean of two determinations; Table 1
# Method in brief: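 Membranes from HEK293 cells transiently expressing human α5β3γ2 GABAA receptors, in Krebs-tris buffer pH 7.5, competed against [3H]flumazenil for 1 hour at 4° C to equilibrium. Bound radioactivity collected on GF/C filters and counted by liquid scintillation; Ki values are means of two determinations.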
Compound,Efficacy (GABA) % [1] [%],Fold increase h-GABA-A α5β3γ2 oocyte [1],Ki [2] [nM]
"Cc1ccc(-c2noc(C)c2Cn2ncc(N3CC(OCC(F)F)C3)cc2=O)cn1 [Example 206, 5-[3-(2,2-difluoroethoxy)azetidin-1-yl]-2-[[5-methyl-3-(6-methyl-3-pyridyl)isoxazol-4-yl]methyl]pyridazin-3-one]",144,2.44,13.7
"Cc1ccc(-c2noc(C)c2Cn2ncc(N3CCN(CC(F)(F)F)CC3)cc2=O)cn1 [Example 31, 2-[[5-methyl-3-(6-methyl-3-pyridyl)isoxazol-4-yl]methyl]-5-[4-(2,2,2-trifluoroethyl)piperazin-1-yl]pyridazin-3-one]",145,2.45,13.5
"Cc1ccc(-c2noc(C)c2Cn2ncc(-c3ccnc(C)c3)cc2=O)cn1 [Example 106, 2-((5-methyl-3-(6-methylpyridin-3-yl)isoxazol-4-yl)methyl)-5-(2-methylpyridin-4-yl)pyridazin-3(2H)-one]",136,2.36,6.2
"Cc1onc(-c2ccc(Cl)nc2)c1Cn1ncc(N2C[C@@H](O)[C@H]2C)cc1=O [Example 289, 2-((3-(6-chloropyridin-3-yl)-5-methylisoxazol-4-yl)methyl)-5-((2R,3R)-3-hydroxy-2-methylazetidin-1-yl)pyridazin-3(2H)-one]",68,1.68,2.2
"Cc1ccc(-c2noc(C)c2Cn2ncc(N3CC4(C3)CN(C3CC3)C4)cc2=O)cn1 [Example 58, 5-(2-cyclopropyl-2,6-diazaspiro[3.3]heptan-6-yl)-2-[[5-methyl-3-(6-methyl-3-pyridyl)isoxazol-4-yl]methyl]pyridazin-3-one]",209,3.09,70.4
"COc1cc(-c2cnn(Cc3c(-c4ccc(C)nc4)noc3C)c(=O)c2)ccn1 [Example 107, 5-(2-methoxypyridin-4-yl)-2-((5-methyl-3-(6-methylpyridin-3-yl)isoxazol-4-yl)methyl)pyridazin-3(2H)-one]",70,1.7,3.8
"Cc1ccc(-c2noc(C)c2Cn2ncc(N3C[C@@H](C)O[C@@H](C)C3)cc2=O)cn1 [Example 7, 5-(cis-2,6-dimethylmorpholin-4-yl)-2-((5-methyl-3-(6-methylpyridin-3-yl)-1,2-oxazol-4-yl)methyl)pyridazin-3-one]",253,3.53,1
"Cc1onc(-c2ccc(Cl)nc2)c1Cn1ncc(N2CCO[C@@H](C)C2)cc1=O [Example 227, (S)-2-((3-(6-chloropyridin-3-yl)-5-methylisoxazol-4-yl)methyl)-5-(2-methylmorpholino)pyridazin-3(2H)-one]",149,2.49,4.4
"Cc1ccc(-c2noc(C)c2Cn2ncc(N3CC[C@@H](C(=O)NC4CC4)C3)cc2=O)cn1 [Example 56, (3R)—N-cyclopropyl-1-[1-[[5-methyl-3-(6-methyl-3-pyridyl)isoxazol-4-yl]methyl]-6-oxo-pyridazin-4-yl]pyrrolidine-3-carboxamide]",247,3.47,33.4
"Cc1ccc(-c2noc(C)c2Cn2ncc(N3CCC4(CCOCC4)CC3)cc2=O)nn1 [Example 247, 2-[[5-methyl-3-(6-methylpyridazin-3-yl)isoxazol-4-yl]methyl]-5-(3-oxa-9-azaspiro[5.5]undecan-9-yl)pyridazin-3-one]",94,1.94,2.8
"Cc1onc(-c2ccc(Cl)nn2)c1Cn1ncc(N2CC(OC(C)(C)C)C2)cc1=O [Example 271, 5-(3-(tert-butoxy)azetidin-1-yl)-2-((3-(6-chloropyridazin-3-yl)-5-methylisoxazol-4-yl)methyl)pyridazin-3(2H)-one]",90,1.9,7.3
"Cc1nonc1N1CCN(c2cnn(Cc3c(-c4ccc(Cl)nc4)noc3C)c(=O)c2)CC1 [Example 280, 2-((3-(6-chloropyridin-3-yl)-5-methylisoxazol-4-yl)methyl)-5-(4-(4-methyl-1,2,5-oxadiazol-3-yl)piperazin-1-yl)pyridazin-3(2H)-one]",166,2.66,7.5
"Cc1onc(-c2ccc(F)cc2)c1Cn1ncc(N2CCC(n3c(C)nnc3C)CC2)cc1=O [Example 55, 5-(4-(3,5-Dimethyl-4H-1,2,4-triazol-4-yl)piperidin-1-yl)-2-((3-(4-fluorophenyl)-5-methylisoxazol-4-yl)methyl)pyridazin-3(2H)-one]",85,1.85,43.4
"Cc1onc(-c2ccc(C(F)(F)F)nn2)c1Cn1ncc(N2CC3(CC[C@@H](F)CO3)C2)cc1=O [Example 334, (R)-5-(7-fluoro-5-oxa-2-azaspiro[3.5]nonan-2-yl)-2-((5-methyl-3-(6-(trifluoromethyl)pyridazin-3-yl)isoxazol-4-yl)methyl)pyridazin-3(2H)-one]",105,2.05,5.9
"Cc1ccc(-c2noc(C)c2Cn2ncc(N3CC4(CCCCCO4)C3)cc2=O)nn1 [Example 316, 2-[[5-methyl-3-(6-methylpyridazin-3-yl)isoxazol-4-yl]methyl]-5-(5-oxa-2-azaspiro[3.6]decan-2-yl)pyridazin-3-one]",100,2,4.3
"COC1CN(c2cnn(Cc3c(-c4ccc(C)nc4)noc3C)c(=O)c2)C1 [Example 104, 5-(3-methoxyazetidin-1-yl)-2-[[5-methyl-3-(6-methyl-3-pyridyl)isoxazol-4-yl]methyl]pyridazin-3-one]",134,2.34,22.9
"C[C@@H]1CN(c2cnn(Cc3conc3-c3ccc(C(F)(F)F)nc3)c(=O)c2)C[C@H](C)O1 [Example 72, 5-(cis-2,6-dimethylmorpholin-4-yl)-2-[[3-[6-(trifluoromethyl)-3-pyridyl]isoxazol-4-yl]methyl]pyridazin-3-one]",167,2.67,40.2

# Source: patent publication US11840528B2 (Hoffmann-La Roche Inc., priority 2018, dated 2023)
